Measured values reported in paper PMC10825133, “Repurposing proteasome inhibitors for improved treatment of triple-negative breast cancer” (Cell Death Discovery, 2024).
Like-named read-outs stand apart in the source and are kept apart here.

Assays:
CAL-148 cells = test: Resazurin-based cell viability assay, monotherapy drug screen; design: species or system human; AUC: unit not given beside the values; conditions: CAL-148; for AUC: area under the dose response curve, 24 h; for GRmax: drug efficacy at highest tested dose (<0 cytotoxic, 0 cytostatic, >0 partial growth inhibition)
[1] = system: eight TNBC cell lines (BT-549, CAL-148, HCC1806, HCC38, HCC70, MDA-MB-436, MDA-MB-453, MDA-MB-468); test: Monotherapy drug screen, mean across the TNBC cell lines
In short: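 Cells seeded at 4.0 × 10^3–7.5 × 10^3/well, grown 24 h, then drug-treated 24 h with matched solvent-vehicle controls per concentration; resazurin absorbance read-out, viability normalised to vehicle after background subtraction, t = 0 untreated cells for GR. AUC, IC50, GR50, GRmax via GRmetrics; combinations predicted by IDACombo, synergy scored with SynergyFinder.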

MCF-7 cells = test: Resazurin-based cell viability assay, monotherapy drug screen; design: species or system human; AUC: scale not given here; conditions: MCF-7; for IC50: growth rate inhibition concentration at GR(c) = 0.5, 24 h, read-out: GR50 (the source's name); for AUC: area under the dose response curve, 24 h; for GRmax: drug efficacy at highest tested dose (<0 cytotoxic, 0 cytostatic, >0 partial growth inhibition)
In short: (§1)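 Cells were seeded at the highest density (tested 1000-16000 cells/well) giving linear growth between days 1 and 3, keeping them in exponential phase over the ~52 h experiment. Viability was read after 4 h at 37 °C with 0.2 mg/ml resazurin added at 10% of medium volume; ex 560/em 615 nm.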

MDA-MB-468 cells = test: as above; design: species or system human; AUC: scale not given here; conditions: MDA-MB-468; for AUC: area under the dose response curve, 24 h
In short: as §1

HCC70 cells = test: as above; design: species or system human; AUC: scale not given here; conditions: HCC70; for AUC: area under the dose response curve, 24 h; for GRmax: drug efficacy at highest tested dose (<0 cytotoxic, 0 cytostatic, >0 partial growth inhibition)
In short: as §1

HCC38 cells = test: as above; design: species or system human; AUC: scale not given here; conditions: HCC38; for AUC: area under the dose response curve, 24 h; for GRmax: drug efficacy at highest tested dose (<0 cytotoxic, 0 cytostatic, >0 partial growth inhibition)
In short: as §1

BT-549 cells = test: as above; design: species or system human; AUC: scale not given here; conditions: BT-549; for AUC: area under the dose response curve, 24 h; for GRmax: drug efficacy at highest tested dose (<0 cytotoxic, 0 cytostatic, >0 partial growth inhibition)
In short: as §1

HCC1806 cells = test: as above; design: species or system human; AUC: scale not given here; conditions: HCC1806; for AUC: area under the dose response curve, 24 h; for GRmax: drug efficacy at highest tested dose (<0 cytotoxic, 0 cytostatic, >0 partial growth inhibition)
In short: as §1

MDA-MB-436 cells = test: as above; design: species or system human; AUC: scale not given here; conditions: MDA-MB-436; for AUC: area under the dose response curve, 24 h; for GRmax: drug efficacy at highest tested dose (<0 cytotoxic, 0 cytostatic, >0 partial growth inhibition)
In short: as §1

[2] = Homo sapiens, growth rate inhibition concentration at GR(c) = 0.5, 24 h, read-out: GR50 (the source's name)
[3] = Homo sapiens, 24 h drug treatment, read-out: IC50
[4] = 24 h drug treatment, read-out: IC50
[5] = growth rate inhibition concentration at GR(c) = 0.5, 24 h, read-out: GR50 (the source's name)

CC(C)C[C@H](NC(=O)CNC(=O)c1cc(Cl)ccc1Cl)B(O)O [MLN 2238, MLN-2238]
AUC (CAL-148 cells): 0.83
GRmax (CAL-148 cells): 0.18
IC50 (CAL-148 cells; [2]): 270 nM
IC50 ([1]; Homo sapiens, 24 h, read-out: GR50 (mean ± SD)): 680 ± 1000 nM
area under the dose response curve (AUC), mean ± SD ([1]; TNBC cell lines, 24 h): 0.76 ± 0.10
IC50 (MCF-7 cells; Homo sapiens, MCF7): 340 nM
AUC (MCF-7 cells): 0.87
GRmax (MCF-7 cells): −0.29
IC50 (MDA-MB-468 cells; [3]): 240 nM
IC50 (MDA-MB-468 cells; [2]): 55 nM
AUC (MDA-MB-468 cells): 0.67
AUC (HCC70 cells): 0.78
GRmax (HCC70 cells): −0.36
IC50 (HCC70 cells; [3]): 2700 nM
IC50 (HCC70 cells; [2]): 740 nM
AUC (HCC38 cells): 0.59
GRmax (HCC38 cells): −0.99
IC50 (HCC38 cells; [3]): 110 nM
IC50 (HCC38 cells; [2]): 71 nM
AUC (BT-549 cells): 0.75
GRmax (BT-549 cells): 0.40
IC50 (BT-549 cells; [2]): 140 nM
AUC (HCC1806 cells): 0.75
GRmax (HCC1806 cells): 0.39
IC50 (HCC1806 cells; [3]): 3000 nM
IC50 (HCC1806 cells; [2]): 3300 nM
IC50 (MDA-MB-436 cells; [2]): 160 nM
AUC (MDA-MB-436 cells): 0.88
GRmax (MDA-MB-436 cells): −0.78

CC(C)C[C@H](NC(=O)CNC(=O)c1cc(Cl)ccc1Cl)B1OC(=O)C(CC(=O)O)(CC(=O)O)O1 [MLN 9708, MLN-9708]
AUC (CAL-148 cells): 0.88
GRmax (CAL-148 cells): 0.40
IC50 (CAL-148 cells; [2]): 500 nM
area under the dose response curve (AUC), mean ± SD ([1]; TNBC cell lines, 24 h): 0.79 ± 0.10
IC50 (MCF-7 cells; Homo sapiens, MCF7): 270 nM
AUC (MCF-7 cells): 0.87
GRmax (MCF-7 cells): −0.48
IC50 (MDA-MB-468 cells; [3]): 800 nM
IC50 (MDA-MB-468 cells; [2]): 100 nM
AUC (MDA-MB-468 cells): 0.72
AUC (HCC70 cells): 0.82
GRmax (HCC70 cells): −0.34
IC50 (HCC70 cells; [3]): 4800 nM
IC50 (HCC70 cells; [2]): 1200 nM
AUC (HCC38 cells): 0.59
GRmax (HCC38 cells): −0.99
IC50 (HCC38 cells; [3]): 130 nM
IC50 (HCC38 cells; [2]): 69 nM
AUC (BT-549 cells): 0.80
GRmax (BT-549 cells): 0.43
IC50 (BT-549 cells; [2]): 840 nM
AUC (HCC1806 cells): 0.79
GRmax (HCC1806 cells): 0.47
IC50 (HCC1806 cells; [2]): 4300 nM
IC50 (MDA-MB-436 cells; [2]): 110 nM
AUC (MDA-MB-436 cells): 0.86
GRmax (MDA-MB-436 cells): −0.82

[NH2][Pt]1([NH2])[O]CC(=O)[O]1 [Nedaplatin]
IC50 (CAL-148 cells; [4]): 320 nM
AUC (CAL-148 cells): 0.78
GRmax (CAL-148 cells): −0.93
IC50 (CAL-148 cells; [5]): 210 nM
area under the dose response curve (AUC), mean ± SD ([1]; TNBC cell lines, 24 h): 0.68 ± 0.10
cytotoxic effect at the highest dose ([1]; TNBC cell lines, by GRmax): cytotoxic
AUC (MCF-7 cells): 0.82
GRmax (MCF-7 cells): −0.57
IC50 (MCF-7 cells): 75 nM
IC50 (MDA-MB-468 cells; [4]): 67 nM
AUC (MDA-MB-468 cells): 0.61
GRmax (MDA-MB-468 cells; drug efficacy at highest tested dose (<0 cytotoxic, 0 cytostatic, >0 partial growth inhibition)): −0.38
IC50 (HCC70 cells; [4]): 46 nM
AUC (HCC70 cells): 0.50
GRmax (HCC70 cells): −0.83
IC50 (HCC70 cells; [5]): 300 nM
IC50 (HCC38 cells; [4]): 93 nM
AUC (HCC38 cells): 0.62
GRmax (HCC38 cells): −0.58
IC50 (HCC38 cells; [5]): 54 nM
IC50 (BT-549 cells; [4]): 150 nM
AUC (BT-549 cells): 0.66
GRmax (BT-549 cells): −0.02
IC50 (BT-549 cells; [5]): 81 nM
IC50 (HCC1806 cells; [4]): 150 nM
AUC (HCC1806 cells): 0.66
GRmax (HCC1806 cells): −0.38
IC50 (HCC1806 cells; [5]): 120 nM
IC50 (MDA-MB-436 cells; [4]): 230 nM
AUC (MDA-MB-436 cells): 0.76
GRmax (MDA-MB-436 cells): 0.22
IC50 (MDA-MB-436 cells; [5]): 130 nM
